{"source": "patent US8815776B2", "about": "“Herbicidal compositions and method of use thereof” (Proactive, LLC, priority 2011, dated 2014)", "assay": "Solubility of prodiamine in solvents", "assay_type": "physicochemical", "source_text": "The aprotic solvent is preferably a pyrrolidone such as NMP, though one or more of dimethylsulfoxide (DMSO), dimethylformamide, and gamma-Butyrolactone alone or in mixtures, including mixtures with NMP, are useful. DMSO and gamma-Butyrolactone dissolve 0.24 to 0.25 grams prodiamine per gram solvent. NMP dissolves 0.68 grams prodiamine per gram solvent. The aprotic solvent is the primary solvent in most embodiments of the EC.\nThere are a number of solvents that are not suitable and would be included only to change the composition.\nFatty amides, also called “fatty acid solvents” in this application, are amides formed from a fatty acid and an amine, of which many are known. Preferred are di-substituted fatty acid amides, which include as non-limiting examples N,N-dimethylcaprylamide (available from Cognis as Agnique™ KE-3658), and […] (available as Halcomid™ M8-10). These compounds can fully or partially replace aprotic solvents, and the solvating capacity approaches that of less-preferred aprotic solvents such as DMSO and gamma-Butyrolactone, that is, 0.24 to 0.25 grams prodiamine per gram solvent. A mixture of C8 and C10 fatty acid dimethylamide, (CAS 1118-92-9 and 14433-76-2) are useful.", "data": [{"smiles": "CCCN(CCC)c1c([N+](=O)[O-])cc(C(F)(F)F)c(N)c1[N+](=O)[O-]", "note": "[prodiamine, N3,N3-di-n-propyl-2,4-dinitro-6-(trifluoromethyl)-m-phenylenediamine]", "values": [{"measurement": "Solubility, g prodiamine/g solvent", "setting": "solvent Aromatic 150 (Aromatic Hydrocarbon)", "value": 0.080, "unit": "g prodiamine/g solvent"}, {"measurement": "Solubility, g prodiamine/g solvent", "setting": "solvent Aromatic 200 (Aromatic Hydrocarbon)", "value": 0.070, "unit": "g prodiamine/g solvent"}, {"measurement": "Solubility, g prodiamine/g solvent", "setting": "solvent Carbitol TM (Diethylene glycol monomethyl ether)", "value": 0.010, "unit": "g prodiamine/g solvent"}, {"measurement": "Solubility, g prodiamine/g solvent", "setting": "solvent DEGEE (Diethylene glycol monoethyl ether)", "value": 0.050, "unit": "g prodiamine/g solvent"}, {"measurement": "Solubility, g prodiamine/g solvent", "setting": "solvent Glycol DPM (Dipropylene glycol methyl ether)", "value": 0.008, "unit": "g prodiamine/g solvent"}, {"measurement": "Solubility, g prodiamine/g solvent", "setting": "solvent Glycol Ether EB (Diethylene glycol monobutyl ether)", "value": 0.020, "unit": "g prodiamine/g solvent"}, {"measurement": "Solubility, g prodiamine/g solvent", "setting": "solvent Jefsol 1555 (Proprietary Solvent (Carbonate))", "value": 0.004, "unit": "g prodiamine/g solvent"}, {"measurement": "prodiamine dissolved per gram solvent", "setting": "solvent NMP", "value": "0.68 grams prodiamine per gram solvent"}]}]}
